Experimental data from patent US8846566B2, “Composition for controlling plant diseases and method for controlling plant diseases” (Sumitomo Chemical Company, Limited, priority 2008, dated 2014).

How the values were obtained:
Type in all cases: in vivo
[1] = test system: Rhizoctonia solani, pathogen of brown patch of turf; experiment: Test Example 5: foliage application on turf, brown patch control (with metconazole); conditions: 10 days after inoculation
Method: Control value=100(A−B)/A “Equation 1”; Generally, the control value expected for the case where the given two kinds of active ingredient compounds are mixed and used for the treatment, the so-called control value expectation is calculated from the following Colby's calculating equation. E=X+Y−(X×Y)/100 “Equation 2”; E: Control value (%) expected for the case in which active ingredient compound A in M ppm, in M g per 100 kg of seeds or in M g per 1 hectare and active ingredient compound B in N ppm, in N g per 100 kg of seeds or in N g per 1 hectare are mixed and used for treatment (hereinbelow referred to as “control value expectation”) “Synergetic effect(%)”=(Actual control value)×100/(Control value expectation) A plastic pot was filled with sandy soil, and turf (Bent grass Penncross) was then disseminated. The turf was allowed to grow in a green house for 20 days. A wettable powder of the compound (1b) and a commercially available metconazole formulation (Caramba (registered trademark) produced by BASF) were respectively diluted with water and then tank-mixed so as to prepare tank-mixed liquids containing the compound (1b) and the metconazole in predetermined concentration. The tank-mixed liquids were subjected to foliage application such that they could be sufficiently adhered to the leaves of the aforementioned turf plants. After completion of the foliage application, the plants were air-dried. Thereafter, bran medium containing mycelium of Rhizoctonia solani, pathogen of brown patch of turf, was sprinkled over the planted area. […] The diameter of infected area on the planted area on which the agents had been sprayed was determined as the incidence of disease at the time of checking and the control value was calculated by the aforementioned Equation 1 based on the incidence of disease determined. […] Besides, in order to calculate the control value, the incidence of disease was also determined in the case in which the plants had not been treated with the agent.

[2] = test system: Botrytis cinerea, pathogen of gray mold of cucumber; experiment: Test Example 3: foliage application on cucumber, gray mold control (with ipconazole); conditions: 6 days after inoculation
Method: Control value=100(A−B)/A “Equation 1”;
Generally, the control value expected for the case where the given two kinds of active ingredient compounds are mixed and used for the treatment, the so-called control value expectation is calculated from the following Colby's calculating equation. E=X+Y−(X×Y)/100 “Equation 2”; […]
A plastic pot was filled with sandy soil, and cucumber (Sagamihanjiro) was then disseminated. […] The diameter of infected area on the plants on which the agents had been sprayed was determined as the incidence of disease at the time of checking and the control value was calculated by the aforementioned Equation 1 based on the incidence of disease thus determined.
(§1) As a comparison, the respective wettable powders described above were diluted with water in predetermined concentration so as to prepare a compound (1b) liquid and an ipconazole liquid respectively and they were subjected to similar disease control test. Besides, in order to calculate the control value, the incidence of disease was also determined in the case in which the plants has not been treated with the agent.

[3] = test system: Botrytis cinerea, pathogen of gray mold of cucumber; experiment: Test Example 1: foliage application on cucumber, gray mold control (with metconazole); conditions: 6 days after inoculation
Text: A plastic pot was filled with sandy soil, and cucumber (Sagamihanjiro) was then disseminated. The cucumber was allowed to grow in a green house for 12 days. A wettable powder of the compound (1b) and a commercially available metconazole formulation (Caramba (registered trademark) produced by BASF) were respectively diluted with water and then tank-mixed so as to prepare tank-mixed liquids containing compound (1b) and metconazole in predetermined concentration. The tank-mixed liquids were subjected to foliage application such that they could be sufficiently adhered to the leaves of the aforementioned cucumber plants. After completion of the foliage application, the plants were air-dried. […] The diameter of infected area on the plants on which the agents had been sprayed was determined as the incidence of disease at the time of checking and the control value was calculated by Equation 1 based on the incidence of disease thus determined.
as §1, with “a metconazole” for “an ipconazole”, “had” for “has”, “agent. […]” for “agent.”

[4] = test system: Rhizoctonia solani, pathogen of cucumber damping-off; experiment: Test Example 4: smear treatment of cucumber seeds, damping-off control (with ipconazole); conditions: ipconazole alone 1 g/100 kg-seed, seventh day
Method: Control value=100(A−B)/A “Equation 1”; Generally, the control value expected for the case where the given two kinds of active ingredient compounds are mixed and used for the treatment, the so-called control value expectation is calculated from the following Colby's calculating equation. E=X+Y−(X×Y)/100 “Equation 2”; E: Control value (%) expected for the case in which active ingredient compound A in M ppm, in M g per 100 kg of seeds or in M g per 1 hectare and active ingredient compound B in N ppm, in N g per 100 kg of seeds or in N g per 1 hectare are mixed and used for treatment (hereinbelow referred to as “control value expectation”) “Synergetic effect(%)”=(Actual control value)×100/(Control value expectation) The results are shown in Table 3. […] They were allowed to grow in a greenhouse while irrigated and the number of non-budding seeds was checked on the seventh day after the dissemination and the incidence of disease was calculated by the aforementioned Equation 3. The control value was calculated by the aforementioned Equation 1 based on the incidence of disease. In order to calculate the control value, the incidence of disease was also determined in the case in which the plants had not been treated with the agent. […]

[5] = test system: Rhizoctonia solani, pathogen of cucumber damping-off; experiment: Test Example 2: smear treatment of cucumber seeds, damping-off control (with metconazole); conditions: metconazole alone 1 g/100 kg-seed, seventh day
Method: Control value=100(A−B)/A “Equation 1”; Generally, the control value expected for the case where the given two kinds of active ingredient compounds are mixed and used for the treatment, the so-called control value expectation is calculated from the following Colby's calculating equation. E=X+Y−(X×Y)/100 “Equation 2”; E: Control value (%) expected for the case in which active ingredient compound A in M ppm, in M g per 100 kg of seeds or in M g per 1 hectare and active ingredient compound B in N ppm, in N g per 100 kg of seeds or in N g per 1 hectare are mixed and used for treatment (hereinbelow referred to as “control value expectation”) “Synergetic effect(%)”=(Actual control value)×100/(Control value expectation) Mixed liquids containing an acetone solution of compound (1b) and an acetone solution of metconazole were prepared. These mixed liquids were used for smear treatment of cucumber (Sagamihanjiro) seeds using a rotary seed treatment machine (seed dresser, produced by Hans-Ulrich Hege GmbH) so as to obtain treated seeds. […] They were allowed to grow in a greenhouse while irrigated and the number of non-budding seeds was checked on the seventh day after the dissemination and the incidence of disease was calculated by Equation 3. The control value was calculated by the aforementioned Equation 1 based on the incidence of disease. […]

Structure (SMILES): CNC(=O)C(OC)c1ccccc1COc1cc(C)ccc1C (racemic) [Compound (1b)]
- Actual control value ([1]; compound (1b) alone 600 g/ha): 88%
- Actual control value ([2]; compound (1b) alone 0.2 ppm): 8%
- Actual control value ([3]; compound (1b) alone 0.2 ppm): 16%

Structure (SMILES): CC(C)C1CCC(Cc2ccc(Cl)cc2)C1(O)Cn1cncn1 (stereo not drawn) [Ipconazole, ipconazole]
- Actual control value ([2]; ipconazole alone 3.1 ppm): 13%
- Actual control value [4]: 30%

Structure (SMILES): CC1(C)CCC(Cc2ccc(Cl)cc2)C1(O)Cn1cncn1 (stereo not drawn) [Metconazole, metconazole]
- Actual control value ([1]; metconazole alone 9.4 g/ha): 63%
- Actual control value ([1]; metconazole alone 37.5 g/ha): 63%
- Actual control value ([3]; metconazole alone 0.8 ppm): 8%
- Actual control value [5]: 39%
